# Measured values published in PubChem BioAssay (NCI).
#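 Each compound was tested at five concentrations against cells in 96-well plates for 48 hours. The concentration for full growth arrest is given as TGI.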
# Legend:
# Experiment in all cases: DTP human tumour cell line panel, 48 h
# 786-0 renal = test system: 786-0 renal
# A498 renal = test system: A498 renal
# A549 NSCLC = test system: A549 NSCLC
# ACHN renal = test system: ACHN renal
# BT-549 breast = test system: BT-549 breast
# CAKI-1 renal = test system: CAKI-1 renal
# CCRF-CEM leukemia = test system: CCRF-CEM leukemia
# COLO 205 colon = test system: COLO 205 colon
# DU-145 prostate = test system: DU-145 prostate
# EKVX NSCLC = test system: EKVX NSCLC
# HCC-2998 colon = test system: HCC-2998 colon
# HCT-116 colon = test system: HCT-116 colon
# HCT-15 colon = test system: HCT-15 colon
# HL-60(TB) leukemia = test system: HL-60(TB) leukemia
# HOP-62 NSCLC = test system: HOP-62 NSCLC
# HOP-92 NSCLC = test system: HOP-92 NSCLC
# HS 578T breast = test system: HS 578T breast
# HT29 colon = test system: HT29 colon
# IGROV1 ovarian = test system: IGROV1 ovarian
# K-562 leukemia = test system: K-562 leukemia
# KM12 colon = test system: KM12 colon
# LOX IMVI melanoma = test system: LOX IMVI melanoma
# M14 melanoma = test system: M14 melanoma
# MALME-3M melanoma = test system: MALME-3M melanoma
# MCF7 breast = test system: MCF7 breast
# MDA-MB-231 breast = test system: MDA-MB-231 breast
# MDA-MB-435 = test system: MDA-MB-435
# MDA-N = test system: MDA-N
# NCI-H226 lung = test system: NCI-H226 lung
# NCI-H23 lung = test system: NCI-H23 lung
# NCI-H460 lung = test system: NCI-H460 lung
# NCI-H522 lung = test system: NCI-H522 lung
# NCI/ADR-RES ovarian = test system: NCI/ADR-RES ovarian
# OVCAR-4 ovarian = test system: OVCAR-4 ovarian
# OVCAR-5 ovarian = test system: OVCAR-5 ovarian
# OVCAR-8 ovarian = test system: OVCAR-8 ovarian
# PC-3 prostate = test system: PC-3 prostate
# RPMI-8226 leukemia = test system: RPMI-8226 leukemia
# RXF 393 renal = test system: RXF 393 renal
# SF-268 CNS = test system: SF-268 CNS
# SF-295 CNS = test system: SF-295 CNS
# SK-MEL-2 melanoma = test system: SK-MEL-2 melanoma
# SK-MEL-28 melanoma = test system: SK-MEL-28 melanoma
# SK-MEL-5 melanoma = test system: SK-MEL-5 melanoma
# SK-OV-3 ovarian = test system: SK-OV-3 ovarian
# SN12C renal = test system: SN12C renal
# SNB-19 CNS = test system: SNB-19 CNS
# SNB-75 CNS = test system: SNB-75 CNS
# SR leukemia = test system: SR leukemia
# SW-620 colon = test system: SW-620 colon
# TK-10 renal = test system: TK-10 renal
# U251 CNS = test system: U251 CNS
# UACC-257 melanoma = test system: UACC-257 melanoma
# UACC-62 melanoma = test system: UACC-62 melanoma
# UO-31 renal = test system: UO-31 renal
# MOLT-4 leukemia = test system: MOLT-4 leukemia
# SF-539 CNS = test system: SF-539 CNS
# T-47D breast = test system: T-47D breast
# OVCAR-3 ovarian = test system: OVCAR-3 ovarian
smiles,measurement,setting,value
Cc1cn([C@@H]2C[C@](C)(CO)N(C)O2)c(=O)[nH]c1=O,TGI,786-0 renal,> 100 µM
same,TGI,A498 renal,> 100 µM
same,TGI,A549 NSCLC,> 100 µM
same,TGI,ACHN renal,> 100 µM
same,TGI,BT-549 breast,> 100 µM
same,TGI,CAKI-1 renal,> 100 µM
same,TGI,CCRF-CEM leukemia,> 100 µM
same,TGI,COLO 205 colon,> 100 µM
same,TGI,DU-145 prostate,> 100 µM
same,TGI,EKVX NSCLC,> 100 µM
same,TGI,HCC-2998 colon,> 100 µM
same,TGI,HCT-116 colon,> 100 µM
same,TGI,HCT-15 colon,> 100 µM
same,TGI,HL-60(TB) leukemia,> 100 µM
same,TGI,HOP-62 NSCLC,> 100 µM
same,TGI,HOP-92 NSCLC,> 100 µM
same,TGI,HS 578T breast,> 100 µM
same,TGI,HT29 colon,> 100 µM
same,TGI,IGROV1 ovarian,> 100 µM
same,TGI,K-562 leukemia,> 100 µM
same,TGI,KM12 colon,> 100 µM
same,TGI,LOX IMVI melanoma,> 100 µM
same,TGI,M14 melanoma,> 100 µM
same,TGI,MALME-3M melanoma,> 100 µM
same,TGI,MCF7 breast,> 100 µM
same,TGI,MDA-MB-231 breast,> 100 µM
same,TGI,MDA-MB-435,> 100 µM
same,TGI,MDA-N,> 100 µM
same,TGI,NCI-H226 lung,> 100 µM
same,TGI,NCI-H23 lung,> 100 µM
same,TGI,NCI-H460 lung,> 100 µM
same,TGI,NCI-H522 lung,> 100 µM
same,TGI,NCI/ADR-RES ovarian,> 100 µM
same,TGI,OVCAR-4 ovarian,> 100 µM
same,TGI,OVCAR-5 ovarian,> 100 µM
same,TGI,OVCAR-8 ovarian,> 100 µM
same,TGI,PC-3 prostate,> 100 µM
same,TGI,RPMI-8226 leukemia,> 100 µM
same,TGI,RXF 393 renal,> 100 µM
same,TGI,SF-268 CNS,> 100 µM
same,TGI,SF-295 CNS,> 100 µM
same,TGI,SK-MEL-2 melanoma,> 100 µM
same,TGI,SK-MEL-28 melanoma,> 100 µM
same,TGI,SK-MEL-5 melanoma,> 100 µM
same,TGI,SK-OV-3 ovarian,> 100 µM
same,TGI,SN12C renal,> 100 µM
same,TGI,SNB-19 CNS,> 100 µM
same,TGI,SNB-75 CNS,> 100 µM
same,TGI,SR leukemia,> 100 µM
same,TGI,SW-620 colon,> 100 µM
same,TGI,TK-10 renal,> 100 µM
same,TGI,U251 CNS,> 100 µM
same,TGI,UACC-257 melanoma,> 100 µM
same,TGI,UACC-62 melanoma,> 100 µM
same,TGI,UO-31 renal,> 100 µM
C/C(=N\NC(=O)c1ccncc1)c1cccc(C(F)(F)F)c1,TGI,A549 NSCLC,> 10 µM
same,TGI,BT-549 breast,> 10 µM
same,TGI,CAKI-1 renal,> 10 µM
same,TGI,CCRF-CEM leukemia,> 10 µM
same,TGI,COLO 205 colon,> 10 µM
same,TGI,DU-145 prostate,> 10 µM
same,TGI,EKVX NSCLC,> 10 µM
same,TGI,HCC-2998 colon,> 10 µM
same,TGI,HCT-15 colon,> 10 µM
same,TGI,HL-60(TB) leukemia,> 10 µM
same,TGI,HOP-62 NSCLC,> 10 µM
same,TGI,HOP-92 NSCLC,> 10 µM
same,TGI,HS 578T breast,> 10 µM
same,TGI,HT29 colon,> 10 µM
same,TGI,IGROV1 ovarian,> 10 µM
same,TGI,K-562 leukemia,> 10 µM
same,TGI,KM12 colon,> 10 µM
same,TGI,LOX IMVI melanoma,> 10 µM
same,TGI,M14 melanoma,> 10 µM
same,TGI,MALME-3M melanoma,> 10 µM
same,TGI,MCF7 breast,> 10 µM
same,TGI,MDA-MB-231 breast,> 10 µM
same,TGI,MDA-N,> 10 µM
same,TGI,MOLT-4 leukemia,> 10 µM
same,TGI,NCI-H226 lung,> 10 µM
same,TGI,NCI-H23 lung,> 10 µM
same,TGI,NCI-H460 lung,> 10 µM
same,TGI,NCI/ADR-RES ovarian,> 10 µM
same,TGI,OVCAR-4 ovarian,> 10 µM
same,TGI,OVCAR-8 ovarian,> 10 µM
same,TGI,RPMI-8226 leukemia,> 10 µM
same,TGI,SF-268 CNS,> 10 µM
same,TGI,SF-539 CNS,> 10 µM
same,TGI,SK-MEL-28 melanoma,> 10 µM
same,TGI,SK-MEL-5 melanoma,> 10 µM
same,TGI,SK-OV-3 ovarian,> 10 µM
same,TGI,SN12C renal,> 10 µM
same,TGI,SNB-75 CNS,> 10 µM
same,TGI,SR leukemia,> 10 µM
same,TGI,SW-620 colon,> 10 µM
same,TGI,T-47D breast,> 10 µM
same,TGI,TK-10 renal,> 10 µM
same,TGI,U251 CNS,> 10 µM
same,TGI,UACC-257 melanoma,> 10 µM
same,TGI,UACC-62 melanoma,> 10 µM
same,TGI,UO-31 renal,> 10 µM
Cc1ccc(C2(N3CCOCC3)OC(C)(C)c3cccc4cccc2c34)cc1 (stereo not drawn),TGI,786-0 renal,32.4 µM
same,TGI,A498 renal,32.9 µM
same,TGI,A549 NSCLC,29 µM
same,TGI,ACHN renal,31.6 µM
same,TGI,BT-549 breast,33.6 µM
same,TGI,CAKI-1 renal,50.1 µM
same,TGI,CCRF-CEM leukemia,65.7 µM
same,TGI,COLO 205 colon,31 µM
same,TGI,DU-145 prostate,37 µM
same,TGI,EKVX NSCLC,29.2 µM
same,TGI,HCT-116 colon,36.9 µM
same,TGI,HCT-15 colon,40 µM
same,TGI,HL-60(TB) leukemia,> 100 µM
same,TGI,HOP-62 NSCLC,32.9 µM
same,TGI,HOP-92 NSCLC,25.5 µM
same,TGI,HS 578T breast,46 µM
same,TGI,HT29 colon,31.8 µM
same,TGI,IGROV1 ovarian,35.2 µM
same,TGI,K-562 leukemia,> 100 µM
same,TGI,KM12 colon,57.2 µM
same,TGI,LOX IMVI melanoma,31 µM
same,TGI,M14 melanoma,32.7 µM
same,TGI,MALME-3M melanoma,36.9 µM
same,TGI,MCF7 breast,33.2 µM
same,TGI,MDA-MB-435,32.6 µM
same,TGI,MDA-N,34.1 µM
same,TGI,MOLT-4 leukemia,> 100 µM
same,TGI,NCI-H226 lung,35.8 µM
same,TGI,NCI-H23 lung,34.9 µM
same,TGI,NCI-H460 lung,30.2 µM
same,TGI,NCI-H522 lung,30.8 µM
same,TGI,NCI/ADR-RES ovarian,31.2 µM
same,TGI,OVCAR-3 ovarian,34.4 µM
same,TGI,OVCAR-4 ovarian,31.1 µM
same,TGI,OVCAR-5 ovarian,34.4 µM
same,TGI,OVCAR-8 ovarian,33.6 µM
same,TGI,PC-3 prostate,34.2 µM
same,TGI,RPMI-8226 leukemia,37.9 µM
same,TGI,RXF 393 renal,31.5 µM
same,TGI,SF-268 CNS,28.7 µM
same,TGI,SF-295 CNS,33.6 µM
same,TGI,SF-539 CNS,34.8 µM
same,TGI,SK-MEL-2 melanoma,30.5 µM
same,TGI,SK-MEL-5 melanoma,35.1 µM
same,TGI,SK-OV-3 ovarian,31.2 µM
same,TGI,SN12C renal,32.5 µM
same,TGI,SNB-19 CNS,32.6 µM
same,TGI,SNB-75 CNS,30.5 µM
same,TGI,SR leukemia,> 100 µM
same,TGI,SW-620 colon,37 µM
same,TGI,T-47D breast,60.4 µM
same,TGI,TK-10 renal,39 µM
same,TGI,U251 CNS,30.7 µM
same,TGI,UACC-257 melanoma,34.6 µM
same,TGI,UACC-62 melanoma,27.8 µM
same,TGI,UO-31 renal,31 µM
CC(=O)c1cc(S(=O)(=O)c2ccc(O)c(C(C)=O)c2)ccc1O,TGI,786-0 renal,> 100 µM
same,TGI,A498 renal,> 100 µM
same,TGI,A549 NSCLC,> 100 µM
same,TGI,ACHN renal,> 100 µM
same,TGI,BT-549 breast,> 100 µM
same,TGI,CAKI-1 renal,> 100 µM
same,TGI,CCRF-CEM leukemia,> 100 µM
same,TGI,COLO 205 colon,> 100 µM
same,TGI,DU-145 prostate,> 100 µM
same,TGI,EKVX NSCLC,> 100 µM
same,TGI,HCC-2998 colon,> 100 µM
same,TGI,HCT-116 colon,> 100 µM
same,TGI,HCT-15 colon,> 100 µM
same,TGI,HOP-62 NSCLC,> 100 µM
same,TGI,HOP-92 NSCLC,> 100 µM
same,TGI,HT29 colon,> 100 µM
same,TGI,IGROV1 ovarian,> 100 µM
same,TGI,K-562 leukemia,> 100 µM
same,TGI,KM12 colon,> 100 µM
same,TGI,LOX IMVI melanoma,> 100 µM
same,TGI,M14 melanoma,> 100 µM
same,TGI,MALME-3M melanoma,> 100 µM
same,TGI,MCF7 breast,> 100 µM
same,TGI,MDA-MB-231 breast,> 100 µM
same,TGI,MDA-MB-435,> 100 µM
same,TGI,MDA-N,> 100 µM
same,TGI,MOLT-4 leukemia,> 100 µM
same,TGI,NCI-H226 lung,> 100 µM
same,TGI,NCI-H23 lung,> 100 µM
same,TGI,NCI-H460 lung,> 100 µM
same,TGI,NCI-H522 lung,> 100 µM
same,TGI,NCI/ADR-RES ovarian,> 100 µM
same,TGI,OVCAR-3 ovarian,> 100 µM
same,TGI,OVCAR-4 ovarian,> 100 µM
same,TGI,OVCAR-5 ovarian,> 100 µM
same,TGI,OVCAR-8 ovarian,> 100 µM
same,TGI,PC-3 prostate,> 100 µM
same,TGI,RPMI-8226 leukemia,> 100 µM
same,TGI,RXF 393 renal,> 100 µM
same,TGI,SF-268 CNS,> 100 µM
same,TGI,SF-295 CNS,> 100 µM
same,TGI,SF-539 CNS,> 100 µM
same,TGI,SK-MEL-2 melanoma,> 100 µM
same,TGI,SK-MEL-28 melanoma,> 100 µM
same,TGI,SK-MEL-5 melanoma,> 100 µM
same,TGI,SK-OV-3 ovarian,> 100 µM
same,TGI,SN12C renal,> 100 µM
same,TGI,SNB-19 CNS,> 100 µM
same,TGI,SR leukemia,> 100 µM
same,TGI,SW-620 colon,> 100 µM
same,TGI,T-47D breast,> 100 µM
same,TGI,TK-10 renal,> 100 µM
same,TGI,U251 CNS,> 100 µM
same,TGI,UACC-257 melanoma,> 100 µM
same,TGI,UACC-62 melanoma,> 100 µM
same,TGI,UO-31 renal,> 100 µM
